{"source": "patent US11541051B2", "about": "“Compositions and methods for treating CDK4/6-mediated cancer” (Icahn School of Medicine at Mount Sinai, priority 2016, dated 2023)", "assay_type_in_all_cases": "cell-based", "key": {"CDK4/6 [1]": {"tested_on": "CDK4/6", "test": "Western blot of CDK4 and CDK6 in MCF7 breast cancer cells treated with degraders (Example 12, FIG. 10 A)", "settings": "1 or 5 μM, 24 h", "protocol": "(§1) Breast cancer cell lines (MCF7, T47D, and ZR-75-1) and melanoma cell lines (A375, SK-MEL-2, SK-MEL-30, and WM1382) were cultured in the presence of DMEM or RPMI supplemented with 10% FBS in the presence of penicillin and streptomycin.\n(§2) Protein concentrations were determined by BCA from cell lysates and equal amounts of protein are loaded to a Bis-Tris 4-12% gel. Gels were run at 80 V for 4 h using 1× running buffer (25 mM Tris, pH 8.3, […] glycine, 0.1% SDS). Proteins were transferred to a nitrocellulose membrane for 2 h at 100 V using transfer buffer (25 mM Tris, pH 8.3, […] glycine, 20% methanol). Ponceau S staining (0.1% Ponceau S, 1% acetic acid) was used to confirm transfer of proteins to the membrane followed by blocking of the membrane for 30 min at room temperature using blocking buffer (5% dry nonfat milk, 0.1% Tween, 0.02% sodium azide in TBS). The blocked membrane is incubated with primary antibodies (1:1000 dilution) in blocking buffer at 4° C. overnight. When primary phosphor-antibodies were used, then the membrane is incubated with 5% BSA instead of milk. The membrane was washed three times, 10 min each, with wash buffer (0.1% Tween in TBS) followed by incubation with secondary HRP conjugated antibody (1:5000 dilution) in 2.5% dry nonfat milk, 0.1% Tween in TBS for 1 h at room temperature. The membrane was washed three times, 10 min each, with wash buffer (0.1% Tween in TBS). Membranes are incubated with ECL for 1 min and proteins are detected after exposure to a blue autoradiographic film.\n(§3) MCF7 breast cancer cells were treated with 1 or 5 μM XY019-095, XY019-098, XY019-0100, XY019-105A, XY019-105B, XY019-106, or XY019-108 for 24 h, then lysed and immunoblotted with antibodies to CDK4, CDK6, and actin (FIG. 10, panel A). […] T47D breast cancer cells were treated with 0.1, 0.3, 1, 3, 10, or 30 μM XY019-106 for 24 h, then lysed and immunoblotted with antibodies to phospho-Rb (pRB), CDK4, and actin (FIG. 10, panel B)."}, "CDK4/6 [2]": {"tested_on": "CDK4/6", "test": "Characterization of CDK4/6 degraders/disruptors in various breast cancer and melanoma cells (summary, Examples 12 and 13)", "protocol": "Specific exemplary abemaciclib-, ribociclib-, and palbociclib-based CDK4/6 degraders/disruptors were characterized in various different breast cancer and melanoma cells (Examples 12 and 13, FIGS. 10-23). […] This efficacy in suppressing CDK4/6 expression and CDK4/6 activity correlated with efficacy in inhibiting cancer cell proliferation.\nas §2"}, "CDK4/6 [3]": {"tested_on": "CDK4/6", "test": "Western blot of CDK4, CDK6 and phospho-Rb in SK-MEL-2 or A375 melanoma cells treated with degraders (Example 12, FIG. 11)", "settings": "SK-MEL-2 or A375 cells; 1 or 3 μM; 24 h", "protocol": "as §1\nas §2, with “The membrane was washed three times, 10 min each, with wash buffer (0.1% Tween in TBS) followed by incubation with secondary HRP conjugated antibody (1:5000 dilution) in 2.5% dry nonfat milk, 0.1% Tween in TBS for 1 h at room temperature. The membrane was washed three times, 10 min each, with wash buffer (0.1% Tween in TBS).” left out, “film. […]” for “film.”"}, "CDK4/6 [4]": {"tested_on": "CDK4/6", "test": "Western blot of CDK4, CDK6 and phospho-Rb in A375 melanoma cells treated with degraders (Example 12, FIGS. 12, 13, 16, 18)", "settings": "1 or 3 μM, 24 h", "protocol": "as §1, §2\nA375 melanoma cells (FIG. 13) were treated with 1 or 3 μM Ribociclib (RB), YX030-126, YX030-108, YX030-107, YX030-086, YX030-085 or XY028-133 for 24 h, then lysed and immunoblotted with antibodies to CDK4, CDK6, cyclin A, PLK1, phospho-Rb (pRb), and actin.\nA375 melanoma cells (FIG. 16, panel A) were treated with 0.3 or 1 μM XY028-140, YX039-65, YX039-48, YX039-123, YX039-56, YX039-124 or YX039-147 for 24 h. A375 melanoma cells were treated with 1 or 3 μM XY028-140, YX039-56, YX039-65 or XY028-133 (FIG. 16, panel B). Cells were lysed and immunoblotted with antibodies to phospho-Rb (pRb), total Rb, PLK1, cyclin A, CDK4, CDK6, and actin.\nA375 melanoma cells (FIG. 18) were treated with 1 or 3 μM XY028-133, YX044-18, YX044-22, XY028-140, YX044-19 or YX044-38 for 24 h, then lysed and immunoblotted with antibodies to phospho-Rb (pRb), total Rb, PLK1, cyclin A, CDK4, CDK6, and actin."}, "CDK4/6 [5]": {"tested_on": "CDK4/6", "test": "Western blot of CDK4/6 and phospho-Rb in T47D breast cancer cells treated with degraders (Example 12, FIGS. 10 B, 17, 19)", "settings": "0.3 or 1 μM, 24 h", "protocol": "as §1, §2, §3\nT47D breast cancer cells (FIG. 17) were treated with 0.3 or 1 μM XY028-140, YX039-48, YX039-123, YX039-56, YX039-124, YX039-65, YX039-147 or YX039-74 for 24 h, then lysed and immunoblotted with antibodies to phospho-Rb (pRb), total Rb, PLK1, cyclin A, CDK4, CDK6, and actin.\nT47D breast cancer cells (FIG. 19) were treated with 0.3 or 1 μM XY028-133, YX044-18, YX044-22, XY028-140, YX044-19 or YX044-38 for 24 h, then lysed and immunoblotted with antibodies to phospho-Rb (pRb), total Rb, PLK1, cyclin A, CDK4, CDK6, and actin."}, "T47D breast cancer cells": {"tested_on": "T47D breast cancer cells", "test": "Crystal violet staining (clonogenic assay) of T47D breast cancer cells (Example 13, FIGS. 22, 23)", "settings": "11 days", "protocol": "Cells were cultured for 7-11 days in the presence of different compounds. Media with compound was replenished every two days. At the end of the experiment, media was aspirated and viable cells were stained with 0.5% crystal violet dye."}}, "note": "“Also recorded” adds a separate entry of the source.", "data": [{"smiles": "CC(=O)c1c(C)c2cnc(Nc3ccc(N4CCN(C(=O)COCCOCCOCC(=O)N[C@H](C(=O)N5C[C@H](O)C[C@H]5C(=O)NCc5ccc(-c6scnc6C)cc5)C(C)(C)C)CC4)cn3)nc2n(C2CCCC2)c1=O", "note": "[XY019-098, (2S,4R)-1-((S)-14-(4-(6-((6-acetyl-8-cyclopentyl-5-methyl-7-oxo-7,8-dihydropyrido[2,3-d]pyrimidin-2-yl)amino)pyridin-3-yl)piperazin-1-yl)-2-(tert-butyl)-4,14-dioxo-6,9,12-trioxa-3-azatetradecanoyl)-4-hydroxy-N-(4-(4-methylthiazol-5-yl)benzyl)pyrrolidine-2-carboxamide]", "values": [{"measurement": "suppression of CDK4/6 expression", "setting": "CDK4/6 [1]", "result": "especially effective in suppressing CDK4/6 expression even at 1 μM"}, {"measurement": "suppression of both CDK4/6 expression and CDK4/6 activity (summary)", "setting": "CDK4/6 [2]", "result": "especially effective in suppressing both CDK4/6 expression and CDK4/6 activity"}]}, {"smiles": "CC(=O)c1c(C)c2cnc(Nc3ccc(N4CCN(C(=O)CCOCCOCCOCCNc5cccc6c5C(=O)N(C5CCC(=O)NC5=O)C6=O)CC4)cn3)nc2n(C2CCCC2)c1=O", "note": "(stereo not drawn) [XY019-108, 4-((2-(2-(2-(3-(4-(6-((6-acetyl-8-cyclopentyl-5-methyl-7-oxo-7,8-dihydropyrido[2,3-d]pyrimidin-2-yl)amino)pyridin-3-yl)piperazin-1-yl)-3-oxopropoxy)ethoxy)ethoxy)ethyl)amino)-2-(2,6-dioxopiperidin-3-yl)isoindoline-1,3-dione]", "values": [{"measurement": "suppression of CDK4/6 expression", "setting": "CDK4/6 [1]", "result": "especially effective in suppressing CDK4/6 expression even at 1 μM"}, {"measurement": "suppression of both CDK4/6 expression and CDK4/6 activity (summary)", "setting": "CDK4/6 [2]", "result": "especially effective in suppressing both CDK4/6 expression and CDK4/6 activity"}]}, {"smiles": "CC(=O)c1c(C)c2cnc(Nc3ccc(N4CCN(C(=O)CCOCCC(=O)N[C@H](C(=O)N5C[C@H](O)C[C@H]5C(=O)NCc5ccc(-c6scnc6C)cc5)C(C)(C)C)CC4)cn3)nc2n(C2CCCC2)c1=O", "note": "[XY028-003, (2S,4R)-1-((S)-2-(3-(3-(4-(6-((6-acetyl-8-cyclopentyl-5-methyl-7-oxo-7,8-dihydropyrido[2,3-d]pyrimidin-2-yl)amino)pyridin-3-yl)piperazin-1-yl)-3-oxopropoxy)propanamido)-3,3-dimethylbutanoyl)-4-hydroxy-N-(4-(4-methylthiazol-5-yl)benzyl)pyrrolidine-2-carboxamide]", "values": [{"measurement": "efficacy in inhibiting both CDK4/6 expression and CDK4/6 activity (decreased Rb phosphorylation)", "setting": "CDK4/6 [3]", "result": "efficacy of CDK4/6 degraders/disruptors, particularly XY019-106 and XY028-003"}, {"measurement": "suppression of both CDK4/6 expression and CDK4/6 activity (summary)", "setting": "CDK4/6 [2]", "result": "especially effective in suppressing both CDK4/6 expression and CDK4/6 activity"}, {"measurement": "efficacy in inhibiting both CDK4/6 expression and CDK4/6 activity (decreased Rb phosphorylation)", "setting": "CDK4/6 [4]", "result": "efficacy of CDK4/6 degraders, particularly XY028-133, XY028-140, XY019-106 and XY028-003"}]}, {"smiles": "CC(=O)c1c(C)c2cnc(Nc3ccc(N4CCN(C(=O)CNc5cccc6c5C(=O)N(C5CCC(=O)NC5=O)C6=O)CC4)cn3)nc2n(C2CCCC2)c1=O", "note": "(stereo not drawn) [XY028-140, 4-((2-(4-(6-((6-acetyl-8-cyclopentyl-5-methyl-7-oxo-7,8-dihydropyrido[2,3-d]pyrimidin-2-yl)amino)pyridin-3-yl)piperazin-1-yl)-2-oxoethyl)amino)-2-(2,6-dioxopiperidin-3-yl)isoindoline-1,3-dione]", "values": [{"measurement": "efficacy in inhibiting both CDK4/6 expression and CDK4/6 activity (decreased Rb phosphorylation)", "setting": "CDK4/6 [5]", "result": "efficacy of CDK4/6 degraders, particularly XY028-140 and YX039-123; also recorded: efficacy of CDK4/6 degraders, particularly XY028-140 and YX044-22 and YX044-19"}, {"measurement": "inhibition of cancer cell proliferation compared with palbociclib (crystal violet staining)", "setting": "T47D breast cancer cells; 0.003, 0.01 or 0.03 μM", "result": "inhibited cancer cell proliferation more effective that palbociclib at the same concentration"}, {"measurement": "inhibition of cancer cell proliferation compared with palbociclib (crystal violet staining)", "setting": "T47D breast cancer cells; 0.03, 0.1, 0.3, 1 or 3 μM", "result": "inhibited cancer cell proliferation more effective that palbociclib at the same concentration"}, {"measurement": "suppression of both CDK4/6 expression and CDK4/6 activity (summary)", "setting": "CDK4/6 [2]", "result": "especially effective in suppressing both CDK4/6 expression and CDK4/6 activity"}, {"measurement": "efficacy in inhibiting both CDK4/6 expression and CDK4/6 activity (decreased Rb phosphorylation)", "setting": "CDK4/6 [4]", "result": "efficacy of CDK4/6 degraders, particularly XY028-133, XY028-140, XY019-106 and XY028-003"}]}, {"smiles": "CC(=O)c1c(C)c2cnc(Nc3ccc(N4CCN(C(=O)COc5cccc6c5CN(C5CCC(=O)NC5=O)C6=O)CC4)cn3)nc2n(C2CCCC2)c1=O", "note": "(stereo not drawn) [YX039-123, 3-(4-(2-(4-(6-((6-acetyl-8-cyclopentyl-5-methyl-7-oxo-7,8-dihydropyrido[2,3-d]pyrimidin-2-yl)amino)pyridin-3-yl)piperazin-1-yl)-2-oxoethoxy)-1-oxoisoindolin-2-yl)piperidine-2,6-dione]", "values": [{"measurement": "efficacy in inhibiting both CDK4/6 expression and CDK4/6 activity (decreased Rb phosphorylation)", "setting": "CDK4/6 [5]", "result": "efficacy of CDK4/6 degraders, particularly XY028-140 and YX039-123"}, {"measurement": "inhibition of cancer cell proliferation compared with palbociclib (crystal violet staining)", "setting": "T47D breast cancer cells; 0.003, 0.01 or 0.03 μM", "result": "inhibited cancer cell proliferation more effective that palbociclib at the same concentration"}, {"measurement": "inhibition of cancer cell proliferation compared with palbociclib (crystal violet staining)", "setting": "T47D breast cancer cells; 0.03, 0.1, 0.3, 1 or 3 μM", "result": "inhibited cancer cell proliferation more effective that palbociclib at the same concentration"}, {"measurement": "suppression of both CDK4/6 expression and CDK4/6 activity (summary)", "setting": "CDK4/6 [2]", "result": "especially effective in suppressing both CDK4/6 expression and CDK4/6 activity"}]}, {"smiles": "CC(=O)c1c(C)c2cnc(Nc3ccc(N4CCCN(C(=O)CNc5cccc6c5C(=O)N(C5CCC(=O)NC5=O)C6=O)CC4)cn3)nc2n(C2CCCC2)c1=O", "note": "(stereo not drawn) [YX044-19, 4-((2-(4-(6-((6-acetyl-8-cyclopentyl-5-methyl-7-oxo-7,8-dihydropyrido[2,3-d]pyrimidin-2-yl)amino)pyridin-3-yl)-1,4-diazepan-1-yl)-2-oxoethyl)amino)-2-(2,6-dioxopiperidin-3-yl)isoindoline-1,3-dione]", "values": [{"measurement": "efficacy in inhibiting both CDK4/6 expression and CDK4/6 activity (decreased Rb phosphorylation)", "setting": "CDK4/6 [5]", "result": "efficacy of CDK4/6 degraders, particularly XY028-140 and YX044-22 and YX044-19"}]}, {"smiles": "CC(=O)c1c(C)c2cnc(Nc3ccc(N4CCN(C(=O)CCCCCC(=O)N[C@H](C(=O)N5C[C@H](O)C[C@H]5C(=O)N[C@@H](C)c5ccc(-c6scnc6C)cc5)C(C)(C)C)CC4)cn3)nc2n(C2CCCC2)c1=O", "note": "[YX044-22, (2S,4R)-1-((S)-2-(7-(4-(6-((6-acetyl-8-cyclopentyl-5-methyl-7-oxo-7,8-dihydropyrido[2,3-d]pyrimidin-2-yl)amino)pyridin-3-yl)piperazin-1-yl)-7-oxoheptanamido)-3,3-dimethylbutanoyl)-4-hydroxy-N-((S)-1-(4-(4-methylthiazol-5-yl)phenyl)ethyl)pyrrolidine-2-carboxamide]", "values": [{"measurement": "efficacy in inhibiting both CDK4/6 expression and CDK4/6 activity (decreased Rb phosphorylation)", "setting": "CDK4/6 [5]", "result": "efficacy of CDK4/6 degraders, particularly XY028-140 and YX044-22 and YX044-19"}]}]}
